# Results reported in patent US20260272964A1, “PENTAGALLOYL GLUCOSE DERIVED FROM SCHINUS PLANTS AND METHODS OF USE” (Emory University, priority 2020, published 2026).
# Where two headings read alike, the source gives them in different places.
# Test system: A. baumannii AB5075
# Experiment: Resistance studies (agar plates and 21-day serial passaging)
# Type: cell-based, Acinetobacter baumannii
# Conditions: for MIC: Acinetobacter baumannii
# Protocol: To test for spontaneous development of resistance to PGG, A. baumannii AB5075 was inoculated on agar plates containing PGG at 0.5×MIC, 1×MIC, and 2×MIC (128, 256, and 512 μg/mL, respectively), and a control plate containing no PGG. […] Next, evolution of resistance was tested by serial passaging A. baumannii AB5075 for 21 days in the presence of a PGG gradient, using culture from the 0.5×MIC treatment for each subsequent passage. Serial passaging with a tetracycline gradient served as a control.
smiles,measurement,setting,value
"CN(C)[C@@H]1C(O)=C(C(N)=O)C(=O)[C@@]2(O)C(O)=C3C(=O)c4c(O)cccc4[C@@](C)(O)[C@H]3C[C@@H]12 [tetracycline, reference compound]",fold increase in MIC,"A. baumannii, after 10 passages",16 fold
same,MIC,"AB5075, read-out: Base MIC",4 µg/mL
same,MIC,"AB5075, read-out: MIC after serial passaging",64 µg/mL
